Experimental data taken from US11142514B2, “Imino compounds with a 2-chloropyrimidin-5-yl substituent as pest-control agents” (BASF SE, priority 2015, dated 2021).

Key:
Type in all cases: in vivo
[1] = tested on: Cotton aphid (Aphis gossypii); experiment: Cotton aphid (Aphis gossypii) foliar spray test B.3; settings: for Activity in %: comparative experiment, 300 ppm, assay according to B.3
Protocol: (§1) The active compounds were formulated by a Tecan liquid handler in 100% cyclohexanone as a 10,000 ppm solution supplied in tubes. The 10,000 ppm solution was serially diluted in 100% cyclohexanone to make interim solutions. These served as stock solutions for which final dilutions were made by the Tecan in 50% acetone:50% water (v/v) into 10 or 20 ml glass vials. A nonionic surfactant (Kinetic®) was included in the solution at a volume of 0.01% (v/v). The vials were then inserted into an automated electrostatic sprayer equipped with an atomizing nozzle for application to plants/insects.
Cotton plants at the cotyledon stage were infested with aphids prior to treatment by placing a heavily infested leaf from the main aphid colony on top of each cotyledon. Aphids were allowed to transfer overnight to accomplish an infestation of 80-100 aphids per plant and the host leaf was removed. The infested plants were then sprayed by an automated electrostatic plant sprayer equipped with an atomizing spray nozzle. The plants were dried in the sprayer fume hood, removed from the sprayer, and then maintained in a growth room under fluorescent lighting in a 24-hr photoperiod at 25° C. and 20-40% relative humidity. Aphid mortality on the treated plants, relative to mortality on untreated control plants, was determined after 5 days.
(§2) The compound of example I-1 was compared with the compound of example I.B-4 of WO 2015/040116 having an unsubstituted pyrimidin-5-yl ring instead of the present 2-chloropyrimidin-5-yl ring with respect to the insecticidal activity. The assays were carried out as described above for the respective pest (the cotton aphid assay according to B.3).

[2] = tested on: Cowpea aphid (Aphis craccivora); experiment: Cowpea aphid (Aphis craccivora) spray test B.5; settings: for Activity in %: comparative experiment, 100 ppm
Protocol: (§3) The active compound was dissolved at the desired concentration in a mixture of 1:1 (vol:vol) distilled water: acetone. Surfactant (Kinetic® HV) was added at a rate of 0.01% (vol/vol). The test solution was prepared at the day of use.
Potted cowpea plants were colonized with approximately 30-50 aphids of various stages by manually transferring a leaf tissue cut from infested plant 24 hours before application. Plants were sprayed with the test solutions using a DeVilbiss® hand atomizer at 20-30 psi (≈1.38 to 2.07 bar) after the pest population has been checked. Treated plants were maintained on light carts at about 25-26° C. Percent mortality was assessed after 72 hours.
as §2

[3] = tested on: Green Peach Aphid (Myzus persicae); experiment: Green peach aphid (Myzus persicae) foliar spray test B.7; settings: for Activity in %: comparative experiment, 300 ppm
Protocol: as §1
Bell pepper plants at the first true-leaf stage were infested prior to treatment by placing heavily infested leaves from the main colony on top of the treatment plants. Aphids were allowed to transfer overnight to accomplish an infestation of 30-50 aphids per plant and the host leaves were removed. The infested plants were then sprayed by an automated electrostatic plant sprayer equipped with an atomizing spray nozzle. The plants were dried in the sprayer fume hood, removed, and then maintained in a growth room under fluorescent lighting in a 24 h photoperiod at about 25° C. and about 20-40% relative humidity. Aphid mortality on the treated plants, relative to mortality on untreated control plants, was determined after 5 days.
as §2

[4] = tested on: Green Soldier Stink Bug (Nezara viridula); experiment: Green soldier stink bug (Nezara viridula) test B.8; settings: in Glycine max, 120 h, read-out: mortality in comparison with untreated controls
Protocol: as §3
Soybean pods were placed in 90×50 mm glass Petri dishes lined with moist filter paper and inoculated with ten late 3rd instar N. viridula. Using a hand atomizer, an approximately 2 ml solution was sprayed into each Petri dish. Treated cups were kept at about 25-26° C. and relative humidity of about 65-70%. Percent mortality was recorded after 5 days.

[5] = tested on: Orchid thrips (Dichromothrips corbetti); experiment: Orchid thrips (Dichromothrips corbetti) floral immersion test B.10; settings: for Activity in %: comparative experiment, 10 ppm
Protocol: Dichromothrips corbetti adults used for bioassay were obtained from a colony maintained continuously under laboratory conditions. For testing purposes, the test compound was diluted in a 1:1 mixture of acetone:water (vol:vol), plus Kinetic® HV at a rate of 0.01% v/v.
Thrips potency of each compound was evaluated by using a floral immersion technique. All petals of individual, intact orchid flowers were dipped into treatment solution and allowed to dry in Petri dishes. Treated petals were placed into individual re-sealable plastic along with about 20 adult thrips. All test arenas were held under continuous light and a temperature of about 28° C. for duration of the assay. After 3 days, the numbers of live thrips were counted on each petal. The percent mortality was recorded 72 hours after treatment.
as §2

[6] = tested on: Rice green leafhopper (Nephotettix virescens); experiment: Rice green leafhopper (Nephotettix virescens) spray test B.12; settings: for Activity in %: comparative experiment, 10 ppm
Protocol: (§4) Four to five-week old rice seedlings with cut upper leaf portion were cleaned and washed 24 hours before spraying. The active compounds were formulated in 1:1 acetone:water (vol:vol), and 0.01% vol/vol surfactant (Kinetic® HV) was added. Potted rice seedlings were sprayed with 5-6 ml test solution, air dried, covered with Mylar cages and inoculated with 10 adults. Treated rice plants were kept at about 28-29° C. and relative humidity of about 50-60%. Percent mortality was recorded after 72 hours.
as §2

[7] = tested on: Rice brown plant hopper (Nilaparvata lugens); experiment: Rice brown plant hopper (Nilaparvata lugens) spray test B.13; settings: 72 h, read-out: mortality in comparison with untreated controls
Protocol: as §4, with “seedlings” for “seedlings with cut upper leaf portion”, “(vol:vol)” for “(vol:vol),”

[8] = tested on: Southern armyworm (Spodoptera eridania); experiment: Southern armyworm (Spodoptera eridania) foliar spray test B.15; settings: for Activity in %: comparative experiment, 300 ppm
Protocol: as §1
Lima bean plants (variety Sieva) were grown 2 plants to a pot and selected for treatment at the 1st true leaf stage. Test solutions were sprayed onto the foliage by an automated electrostatic plant sprayer equipped with an atomizing spray nozzle. The plants were dried in the sprayer fume hood and then removed from the sprayer. Each pot was placed into perforated plastic bags with a zip closure. About 10 to 11 armyworm larvae were placed into the bag and the bags zipped closed. Test plants were maintained in a growth room at about 25° C. and about 20-40% relative humidity for 4 days, avoiding direct exposure to fluorescent light (24 hour photoperiod) to prevent trapping of heat inside the bags. Mortality and reduced feeding were assessed 4 days after treatment, compared to untreated control plants.
as §2

[9] = tested on: Vetch aphid (Megoura viciae); experiment: Vetch aphid (Megoura viciae) leaf disk test B.19; settings: foliar, 120 h, read-out: mortality in comparison with untreated controls
Protocol: For evaluating control of vetch aphid (Megoura viciae) through contact or systemic means the test unit consisted of 24-well-microtiter plates containing broad bean leaf disks.
The compounds were formulated using a solution containing 75% v/v water and 25% v/v DMSO. Different concentrations of formulated compounds were sprayed onto the leaf disks at 2.5 μl, using a custom built micro atomizer, at two replications.
After application, the leaf disks were air-dried and 5-8 adult aphids placed on the leaf disks inside the microtiter plate wells. The aphids were then allowed to suck on the treated leaf disks and incubated at about 23±1° C. and about 50±5% relative humidity for 5 days. Aphid mortality and fecundity was then visually assessed.

[10] = tested on: Diamond back moth (Plutella xylostella); experiment: Diamond back moth (Plutella xylostella) leaf dip test B.6; settings: 300 ppm; cabbage leaf dip; 72 hours after treatment
Protocol: as §3
Leaves of cabbage were dipped in test solution and air-dried. Treated leaves were placed in petri dishes lined with moist filter paper and inoculated with ten 3rd instar larvae. Mortality was recorded 72 hours after treatment. Feeding damages were also recorded using a scale of 0-100%.

| Compound | mortality at 300 ppm ([1]; Aphis gossypii, foliar, 120 h, read-out: mortality in comparison with untreated controls) [%] | Activity in % [1] [%] | mortality at 300 ppm ([2]; Aphis craccivora, 72 h, read-out: mortality in comparison with untreated controls) [%] | Activity in % [2] [%] | mortality at 2500 ppm ([3]; Myzus persicae, foliar, 120 h, read-out: mortality in comparison with untreated controls) [%] | Activity in % [3] [%] | mortality at 300 ppm [4] [%] | mortality at 300 ppm ([5]; Thrips, 72 h, read-out: mortality in comparison with untreated controls) [%] | Activity in % [5] [%] | mortality at 300 ppm ([6]; Nephotettix virescens, 72 h, read-out: mortality in comparison with untreated controls) [%] | Activity in % [6] [%] | mortality at 300 ppm [7] [%] | mortality at 300 ppm ([8]; Spodoptera eridania, in Phaseolus lunatus, foliar, 96 h, read-out: mortality in comparison with untreated controls) [%] | Activity in % [8] [%] | mortality at 2500 ppm [9] [%] | mortality in comparison with untreated controls [10] |
| --- | --- | --- | --- | --- | --- | --- | --- | --- | --- | --- | --- | --- | --- | --- | --- | --- |
| N#CC1(C(=O)N=c2ccccn2Cc2cnc(Cl)nc2)CC1 [I-1, N-[1-[(2-chloropyrimidin-5-yl)methyl]-2-pyridylidene]-1-cyano-cyclopropanecarboxamide] | > 75 | 90 | > 75 | 50 | > 75 | 100 | > 75 | > 75 | 100 | > 75 | 90 | > 75 | > 75 | 100 | > 75 | – |
| CON=CC(=O)N=c1ccccn1Cc1cnc(Cl)nc1 [I-2] | – | – | – | – | – | – | – | – | – | – | – | – | – | – | – | over 75% |
| N#CC1(C(=O)N=c2ccccn2Cc2cncnc2)CC1 [I.B-4, reference compound] | – | 0 | – | 0 | – | 50 | – | – | 0 | – | 50 | – | – | 0 | – | – |
